From patent US9211305B2, “Pharmaceutical compositions with glycosaminoglycans and use thereof in the treatment of chronic ulcers” (LABORATORIOS FARMACEUTICOS ROVI S.A., priority 2008, dated 2015)
Values joined by “and” are separate entries in the source; they are usually repeats but may differ in a detail not shown here. Equal values may be shown once. Marks after values point to notes of the source that are not given here.

Tests used:
[1] = system: diabetic wistar rat; test: Example 2: ulcer area reduction in streptozocin-diabetized rats, subcutaneous route; type: in vivo; conditions: for percentage of area reduction of day 9 with respect to day 1: single ulcers
Protocol: To perform the present embodiment, doses of 45 mg/kg of streptozocin (STZ) were administered by intramuscular route to make a batch of 8 rats diabetic (Andrades Ja et al. Engineering, expression, and renaturation of a collagen-targeted human bFGF fusion protein. Growth Factors. 2001; 18(4):261-75).
Male wistar rats with a average weight of 250 g per rat were used, to which a dose of 11.25 mg STZ per rat was administered by means of the intramuscular administration of 100 μL in the left paw of each rat.
Sweetened water (350 mg/dL) was administered to all the rats for three days and glucose measurements were performed with a glucometer every day to verify that the rats were indeed diabetized. For this reason, before the administration and at time 4 days after the administration of streptozocin, a drop of blood was extracted from the rat tail vein for the subsequent quantification of glycemia and see whether they were diabetic before starting the ulceration assay.
Once the rats were diabetized, 2 ulcers with a diameter of 1 cm each were made on them using a scalpel. An anesthesia/analgesia protocol with ketamine/xylazine was followed according to the recommendations of the book: “Handbook of laboratory animal management and welfare”:
The ulcers were treated with water and cleaned for 9 days after the ulceration.
The administrations of bemiparin and of fondaparinux were performed by means of a bemiparin solution by subcutaneous route (100 μL) for the treatment of the ulcers.
The diameter of the ulcer was quantified by means of tracing the ulcer onto a transparency to see the progress of the healing.

[2] = system: C57BL/KsJ-db/db diabetic mouse; test: Example 4: wound healing in genetically diabetic mouse, topical route; type: in vivo; conditions: topical 1000 IU/kg; for histopathological Grade / histopathological Score: 14 days, sacrifice day 15
Protocol: In this case, topical formulations were prepared for the direct administration on the ulcers, the carriers of which formulations are formed by Carbopol, Phenonip®, Span 80, Glycerol and water.
The ulceration and measurement of the area were performed as detailed in the subcutaneous administration assays. On the day after the incision and for a total of 14 days, the assigned treatments, 0.15 ml/animal by topical route in the back of the animal, above the wound, were administered to the animals.
The follow-up of the animals was performed up to a period of 14 days (average time necessary for the healing of the wounds in this animal model). The assessment was performed by means of digital photography of the wound and subsequent image analysis.
The animals were sacrificed on the day after the last administration (day 15) and the area where the wound was made was extracted. The rear portion of the area containing the wound was stored in formol for its histological processing (hematoxylin-eosin staining).
The results were based on the score given by the method of Greenhalgh et al. (1990). Each block was given a histological score from 1 to 15, where 1 means uncured wound and 15 means completely epithelialized wound. The score is based on the degree of cell invasion, the formation of granulation tissue, vascularization and epithelialization: […]

[3] = system: diabetic rat wound model; test: Wound healing by oral route in diabetic rat; type: in vivo, Wistar rat; conditions: 14 days; for histopathological Grade / histopathological Score: oral, sacrifice day 15, fondaparinux 10 mg/kg, bemiparin 100 mg/kg
Protocol: (§1) Both treatments were administered by oral route at an administration volume of 10 mL/kg. In the case of fondaparinux, a dose of 10 mg/kg was administered and in the case of bemiparin, 100 mg/kg were administered.
(§2) The control group only received the carrier used to prepare the assay product. The carrier for the preparation of the assay product is a 1.5% (w/v) bicarbonate solution in water for injections. It was verified that the pH of the formulations prepared was above 8.00.
At the beginning of the assay, diabetes mellitus was induced in all the animals. To that end, they received a single intraperitoneal injection of streptozotocin (60 mg/kg, 10 mL/kg). After 72 hours, the establishment of the diabetes was verified by analyzing the blood glucose levels. To that end, animals were anesthetized with isoflurane and 0.8 mL of blood were extracted from the retroorbicular plexus. The animals had to have values of glucose greater than 15 mmol/L. A week after the induction of the diabetes, the wound was made.
(§3) The animals were anesthetized (ketamine+xylazine, 90+10 mg/kg, i.m.). Their back was shaved and cleaned with disinfectant (povidone-iodine) and the area where the wound would be made was marked by means of a template to homogenize its position in all the animals.
(§4) The wound was made by means of a circular incision with a diameter of approximately 1.5 cm, the skin of the mid-dorsal area being removed. 1 mL/animal of physiological serum was administered by i.p. route after the intervention. […]. Analgesia (paracetamol, 1 mg/mL) was provided in drinking water for the 7 days after the intervention.
(§5) On the day after making the wound and for a total of 14 days, the assigned treatments were administered to the animals. The follow-up of the animals was performed, the evolution of the wounds being macroscopically assessed twice a week, by means of digital photography of the wound. The body weight of the animals was also recorded twice a week.
(§6) On the day after the last administration, the animals were sacrificed with anesthesia overdose (pentobarbital sodium). The area where the wound was made was extracted. The front half was frozen in liquid nitrogen and stored in a freezer (−80±5° C.) and the rear half was stored in formol for its subsequent histological processing.
(§7) The wound area was calculated as the percentage of reduction thereof to evaluate the degree of curing thereof, by means of the standardized formula: […]
On the following day and for a total of 14 days, 10 mL/kg were administered to the animals by oral route.
(§8) The follow-up of the animals was performed, the evolution of the wounds being macroscopically assessed twice a week, by means of digital photography of the wound. The body weight of the animals was also recorded twice a week.
(§9) The animals were sacrificed on day 15 of the study and the area of the skin where the wound was caused was stored in formol to perform a histopathological evaluation (hematoxylin-eosin staining).
Each section was given a histological score in the grade I to grade V range, where I means uncured wound and V means completely epithelialized wound. The score is based on the degree of cell invasion, the formation of granulation tissue, […]

[4] = system: Non-Diabetized Rats; test: Wound healing by oral route in non-diabetized rats; type: in vivo, Wistar rat; conditions: for histopathological Grade / histopathological Score: sacrifice day 15, fondaparinux 10 mg/kg, bemiparin 100 mg/kg
Protocol: as §1, §2, §3, §4, §5, §6, §7
On the following day and for a total of 14 days, 10 mg/kg were administered to the animals by oral route.
as §8, §9
Each section was given a histological score was given in the grade I to grade V range, where I means uncured wound and V means completely epithelialized wound. The score is based on the degree of cell invasion, the formation of granulation tissue, vascularization and epithelialization.

[5] = Fondaparinux rats, Batch 3, 0.22 mg per rat, subcutaneous
[6] = 108 IU rats, Batch 2, subcutaneous
[7] = 217 IU rats, Batch 1, subcutaneous

Row | Compound | percentage of area reduction of day 9 with respect to day 1, Average [1, 5] [%] | percentage of area reduction of day 9 with respect to day 1 [1, 5] | histopathological Grade [2] | histopathological Score [2] | histopathological Grade [3] | histopathological Score [3] | histopathological Grade ([4]; oral, 14 days) | histopathological Score ([4]; oral, 14 days) | percentage of area reduction of day 9 with respect to day 1, Average [1, 6] [%] | percentage of area reduction of day 9 with respect to day 1, Average [1, 7] [%] | macroscopic healing process ([1]; day 9 with respect to day 0, bemiparin 217 IU) | percentage of area reduction of day 9 with respect to day 1 [1, 6] | percentage of area reduction of day 9 with respect to day 1 [1, 7] | area reduction ([2]; end of the treatment (14 days)) | evolution of the wound area (FIG. 11) ([3]; oral 100 mg/kg) | reduction of the ulceration area ([4]; oral 100 mg/kg, 14 days) | scab formation ([4]; oral, compared with fondaparinux)
1 | CO[C@H]1O[C@H](COS(=O)(=O)O)[C@@H](O[C@@H]2O[C@@H](C(=O)O)[C@@H](O[C@H]3O[C@H](COS(=O)(=O)O)[C@@H](O[C@@H]4O[C@H](C(=O)O)[C@@H](O[C@H]5O[C@H](COS(=O)(=O)O)[C@@H](O)[C@H](O)[C@H]5NS(=O)(=O)O)[C@H](O)[C@H]4O)[C@H](OS(=O)(=O)O)[C@H]3NS(=O)(=O)O)[C@H](O)[C@H]2OS(=O)(=O)O)[C@H](O)[C@H]1NS(=O)(=O)O [Fondaparinux] | 20.70 | 17.00%* and 20.69% and 21.32% and 23.81% | III (7-9 Moderately thick granulation tissue. It can vary from being dominated by inflammatory cells to greater presence of fibroblasts and collagen deposition, extensive neovascularization, minimum to moderate epithelial migration.) | 8.6 | III (7-9 Moderately thick granulation tissue. It can vary from being dominated by inflammatory cells to greater presence of fibroblasts and collagen deposition, extensive neovascularization, minimum to moderate epithelial migration.) | 9.5 | III (7-9 Moderately thick granulation tissue. It can vary from being dominated by inflammatory cells to greater presence of fibroblasts and collagen deposition, extensive neovascularization, minimum to moderate epithelial migration.) | 9.5 | – | – | – | – | – | – | – | – | –
2 | Bemiparin | – | – | III (7-9 Moderately thick granulation tissue. It can vary from being dominated by inflammatory cells to greater presence of fibroblasts and collagen deposition, extensive neovascularization, minimum to moderate epithelial migration.) | 8.7 | IV (10-12 Thick and vascular granulation tissue dominated by fibroblasts and extensive collagen deposition, the epithelium covers the wound partially or completely.) | 11.3 | III (7-9 Moderately thick granulation tissue. It can vary from being dominated by inflammatory cells to greater presence of fibroblasts and collagen deposition, extensive neovascularization, minimum to moderate epithelial migration.) | 9.0 | 24.39 ± 7.47 | 27.35 ± 7.25 | macroscopically much better than in the case of fondaparinux | 16.96% and 13.26% and 19.14% and 19.71% | 29.31% and 31.85% and 28.40% and 24.89% | greater than 60% | heal much better than those treated with fondaparinux | more or less to the same extent as the control animals | much more pronounced scab process
